In ChEMBL document CHEMBL3286145, “Evaluation of the antiprion activity of 6-aminophenanthridines and related heterocycles” (Eur J Med Chem, 2014):
Active and inactive are the calls of the source. The rule behind the calls is not given here.

Key:
Saccharomyces cerevisiae [1] = experiment: Antiprion activity against yeast STRg6 prion protein [PSI+] at 50 nmole by colorimetric assay
Saccharomyces cerevisiae [2] = experiment: Antiprion activity against yeast SB34 prion protein [URE3] at 50 nmole by colorimetric assay

SMILES | antiprion activity (active/not active) (Saccharomyces cerevisiae [1]) | antiprion activity (active/not active) (Saccharomyces cerevisiae [2])
Nc1nc2ccccc2c2ccccc12 | Active | Active
Cc1ccc2c(N)nc3ccccc3c2n1 | inactive | inactive
Nc1nc2ccccc2c2ccc([N+](=O)[O-])cc12 | Active | Active
Nc1nc2ccccc2c2cnccc12 | inactive | inactive
Nc1cccc2c1c(N)nc1ccccc12 | Active | Active
Nc1nc2cccnc2c2ccccc12 | inactive | inactive
Nc1nc2ccccc2c2cccc([N+](=O)[O-])c12 | Active | Active
Nc1nc2ccccc2c2c1CC=CC2 | Active | Active
COc1cc(OC)c2nc(N)c3ccccc3c2c1 | Active | inactive
Cc1ccc2nc(N)c3ccccc3c2c1 | Active | inactive
Nc1nc2ccccc2c2cc([N+](=O)[O-])ccc12 | Active | inactive
Nc1nc2ccc(OC(F)(F)F)cc2c2ccccc12 | Active | inactive
Nc1ccc2c(c1)c(N)nc1ccccc12 | Active | inactive
CN[S+]([O-])c1ccc2c(N)nc3ccccc3c2c1 (stereo not given) | inactive | inactive
Nc1nc2ccccc2c2ccc(C(F)(F)F)cc12 | Active | Active
Nc1nc2ccccc2c2cc(F)ccc12 | Active | Active
Cc1ccc2c(N)nc3ccccc3c2c1 | Active | Active
Nc1nc2ccccc2c2c1CCCC2 | Active | Active
Nc1nc2ccccc2c2cccc(F)c12 | Active | Active
CC[C@H](CO)Nc1nc2ccccc2c2ccccc12 | inactive | inactive
Nc1nc2ncccc2c2ccccc12 | inactive | inactive
Nc1nc2ccncc2c2ccccc12 | inactive | inactive
Nc1nc2ccccc2c2ccc(F)cc12 | Active | Active
[N-]=[N+]=Nc1ccc2c(c1)c(N)nc1ccccc12 | Active | Active
COc1ccc(CCNc2nc3ccccc3c3ccccc23)cc1OC | inactive | inactive
